In ChEMBL document CHEMBL1159352, “Reaction of irofulven with zinc and acid” (J Nat Prod, 2003):

Tested on: HL-60
Test: Cytotoxicity against human HL60 cells after 48 hrs by trypan blue exclusion assay
Format: functional, cell-based
Conditions: HL-60, 48 h

C=C1C(C)=Cc2c(O)c(C)c(CCOC(C)=O)c(C)c21
IC50: 110 µM

CC1=C(CO)c2c(C)c(CCO)c(C)c(O)c2C1
IC50: 120 µM

C=C1C(C)=Cc2c(O)c(C)c(CCO)c(C)c21
IC50: 130 µM

CC1=C(CO)c2c(C)c(CCO)c(C)c(O)c2C1O (stereo not given)
IC50: 114 µM

CC1=C2C(=C[C@@](C)(CO)[C@@H]2O)C(=O)[C@](C)(O)C12CC2 [ILLUDIN]
IC50: 0.003 µM
